Reference: US7041446B2, “Labeled protein and its producing method, labeling compound to be used in the method, and method for analyzing function of genes” (priority 1998, dated 2006)

Key:
[1] = test system: C-terminal of thioredoxin; assay: Labeling of translated protein in cell-free transcription-translation system of E. coli; type: biochemical; conditions: for linkage to the C-terminal of thioredoxin: cell-free transcription-translation system of E. coli
Protocol: rCpPur (30 pmol) was phosphorylated by T4 polynucleotide kinase (10 units) in the presence of γ-^33P-ATP (9.25 MBq). The reaction was carried out under the condition of 37° C. for 1 hour. After the reaction was over, the reaction mixture was heated at 70° C. for 20 minutes to inactivate the enzyme.
Labeling reaction was carried out using a cell-free transcription-translation system of E. coli. The reaction mixture (25 μl) of the cell-free transcription-translation system of E. coli had the following composition: 7.5 μl of E. coli S30 extract (containing T7 RNA polymerase), 10 μl of E. coli S30 premix, 2.5 μl of an amino acid mixed solution, 1 μl of an RNase inhibitor, 1 μg of plasmid (thioredoxin), and 0.0003 to 0.3 μM (final concentration) of the ^33P-rCpPur described above. As a control, the reaction was carried out also in a system containing ^35S-methionine (1.2 μM). After the reaction was carried out at 37° C. for 30 minutes, precipitation was performed with acetone. A buffer solution (pH 8) containing 1% SDS was added to the precipitate, and then heated at 90° C. for 5 minutes for dissolution, separated by SDS-15% polyacrylamide gel electrophoresis, and analyzed using an image analyzer (Fuji Photo Film, BAS 2000). […] When the concentration of ^33P-rCpPur was 0.3 μM, a distinct band corresponding to the full-length thioredoxin was detected at the position of apparent molecular weight of 12 kDa. […] The band with an apparent molecular weight of 12 kDa was detected even when labeled with ^35S-methionine (final concentration: 1.2 μM) (FIG. 3).
Fluorescent labeling of a protein by a cell-free transcription-translation system of E. coli in the presence of Fluorpur and Fluorthiopur was examined. […] After the reaction was carried out at 37° C. for 30 minutes, precipitation was performed with acetone. A buffer solution (pH 8) containing 1% SDS was added to the precipitate, then heated at 90° C. for 5 minutes for dissolution, separated by SDS-15% polyacrylamide gel electrophoresis, and detected for fluorescent bands of protein using a fluorescent gel scanner (Fluor Imager 585, Molecular Dynamics). Measurement was made at an excitation wavelength of 488 nm and an emission wavelength of 520 nm. FIGS. 4A, 4B and 4C show the results of fluorescent labeling of thioredoxin with Fluorpur and Fluorthiopur. For both Fluorpur and Fluorthiopur in a concentration ranges of 0.36 to 1.44 μM, fluorescent bands were detected at the position of apparent molecular weight of 12 kDa indicated by an arrow (FIGS. 4A and 4B).

[2] = test system: protein synthesis of bacteria; conditions: cited from earlier work
[3] = test system: protein synthesis of animal cells; conditions: cited from earlier work
[4] = test system: full-length protein of thioredoxin; assay: Labeling of thioredoxin in cell-free transcription-translation system containing nuclease treated rabbit reticulocyte lysate; type: biochemical, E. coli
Protocol: (§1) The fluorescent labeling of the full-length protein of thioredoxin with Fluorpur and Fluorthiopur was confirmed also in a cell-free transcription-translation system containing nuclease treated rabbit reticulocyte lysate or wheat germ lysate. The respective optimal concentrations of Fluorpur and Fluorthiopur necessary for fluorescent labeling were 0.3 to 50 μM in the system containing nuclease treated rabbit reticulocyte lysate and 10 to 50 μM in the case of the system containing wheat germ lysate.

[5] = test system: full-length protein of thioredoxin; assay: Labeling of thioredoxin in cell-free transcription-translation system containing wheat germ lysate; type: biochemical, E. coli
Protocol: as §1

Row | Compound | band with an apparent molecular weight of 12 kDa ([1]; control label, final concentration 1.2 μM) | inhibition of protein synthesis [2] | inhibition of protein synthesis [3] | linkage to the C-terminal of thioredoxin [1] | labeling of the full-length protein of thioredoxin [4] | labeling of the full-length protein of thioredoxin [5] | incorporation compared with Fluorpur ([1]; fluorescent labeling of thioredoxin, E. coli system)
1 | CSCC[C@H](N)C(=O)O [^35S-methionine, reference compound] | detected |  |  |  |  |  | 
2 | COc1ccc(C[C@H](N)C(=O)N[C@H]2[C@@H](O)[C@H](n3cnc4c(N(C)C)ncnc43)O[C@@H]2CO)cc1 [puromycin, 3′-[α-amino-p-methoxyhydro-cinnamamido]-3′-deoxy-N,N′-dimethyladenosine] |  | inhibit the protein synthesis | inhibit the protein synthesis |  |  |  | 
3 | fluoresceinylphosphopuromycin [Fluorpur] |  |  |  | linked to the C-terminal of the full-length protein | can be confirmed | can be confirmed | 
4 | fluoresceinylthiophophopuromycin [Fluorthiopur] |  |  |  | linked to the C-terminal of the full-length protein | can be confirmed | can be confirmed | more or less efficiently
